{"source": "patent US20230323296A1", "about": "“STEM CELL-LIKE MEMORY T CELLS AND USES THEREOF” (GEORGETOWN UNIVERSITY, priority 2020, published 2023)", "key": {"[1]": {"system": "CD4+ T cells in the tumor microenvironment (TME)", "experiment": "In vivo TSCM generation in TC-1 tumor bearing mice (FACS of tumors)", "settings": "MEKi 10 mg/Kg oral gavage, 15 doses", "description": "Mice were treated and tumors were isolated. The frequency of CD4^+ cells in variously treated mice (UT, untreated; Vax; MEKi, MEK1/2 inhibitor only; and Vax +MEKi, both E7 and MEK inhibitor) were determined. Error bars represent mean±SEM. (^NSnon-significant, *p≤0.05, **p≤0.01). For Vax treated mice, The CTL epitope from HPV16 E749-57 (RAHYNIVTF, 100 μg/mouse) was used mixed with PADRE, a small 13-mer non-natural pan HLA DR-binding sequence that is a potent T helper cell epitope (20 μg/mouse-Celtek Bioscience, Franklin, TN), and QuilA (adjuvant, 10 μg/mouse-Brenntag, Westbury, NY). Two doses of the vaccine were administered subcutaneously (s.c.) every seven days starting at an average tumor volume of 0.07-0.08 cm^3. Three days after the second vaccination, mice were sacrificed and expression of various markers was analyzed in cells from the tumors by flow cytometry\nThe frequency of CD62L^+CD44^− CD4^+ T cells in variously treated mice as described for FIG. 1A were determined. Error bars represent mean±SEM. (^NSnon-significant, *p≤0.05, **p≤0.01).\nTC-1 tumor bearing mice were treated with an MEK inhibitor (MEKi) (10 mg/Kg), for a total of 15 doses, given everyday by oral gavage, starting when tumor reached an average size of 0.05 cm^3. […] The single-cell suspended tumors were labelled with appropriately conjugated fluorophore conjugated antibodies and analyzed by FACS."}, "[2]": {"system": "CD4 cells from the splenocytes of wild type (WT) mice", "experiment": "In vitro assay of TSCM induction in activated CD4 cells (FACS)", "type": "cell-based", "settings": "TCONV cells activated with IL-2/anti-CD3/anti-CD28, 72 hours, MEKi 1 uM, vs cells activated without MEK1/2 inhibitor; FIG. 2A", "description": "T conventional (TCONV) cells (from mouse spleen), defined as CD4^+FoxP3^− cells, were activated (Act) by IL-2 with anti-CD3/anti-CD28 in the presence (+) or absence (−) of MEK1/2 inhibitor for 72 hours, and the number of Sca1^+CD62L^+CD44^−CD4^+ T cells was determined by flow cytometry sorting (FACS).\nCD4 cells from the splenocytes of wild type (WT) mice were prepared by magnetic purification using Biolegend cell sorting kits, as per the manufacturer's instructions. Purified cells were activated by plating 1×10^6/ml in cell activation medium that contained rIL-2 (100 IU/ml), anti-CD3 (5 ug/ml), anti-CD28 (2.5 ug/ml) and MEKi (1 uM). Appropriate arms (only cell activation and only IL-2 treatment) were also included for valid comparisons. After 72 hours of incubation at 37° C., at 5% CO2 in a humidified incubator, cells were picked up and processed for FACS analysis of TSCM induction."}}}
{"smiles": "N#CC(=C(N)Sc1ccc(N)cc1)c1ccccc1C(F)(F)F", "note": "[MEK1/2 inhibitor]", "values": [{"measurement": "numbers of CD4+ T cells in the tumor microenvironment (TME)", "setting": "[1]; FIG. 1A", "value": "increases"}, {"measurement": "induction of CD4+ T cells with a naive-like phenotype (CD62L+CD44-) in the TME", "setting": "[1]; FIG. 1B", "value": "significantly enhanced"}, {"measurement": "generation of Sca1+ TNAIVE CD4+ T cells", "setting": "[2]", "value": "significantly enhanced"}]}
